{"source": "patent US20060183733A1", "about": "“Treating microvasculature diseases with acetyl cholinesterase inhibitors” (priority 2005, published 2006)", "key": {"[1]": {"test_system": "patients with urinary retention", "assay": "Patient case histories: urinary retention (voiding trials, post void residuals)"}, "[2]": {"test_system": "patients with rheumatologic conditions (RA, SLE, PMR, polymyositis)", "assay": "Patient case histories: rheumatological conditions", "assay_type": "in vivo, human", "text": "The use of an acetylcholinesterase inhibitor raises level of acetylcholine by inhibition of cholinesterase. The Increased levels of acetylcholine stimulate neuronal receptors of the parasympathetic nervous system and non-neuronal receptors associated with the intima of blood vessels and leukocytes. This dual effect of improving flow within the microvascular circulation and stabilization of leukocytes and their adhesion to the wall of blood vessel produces the anti-inflammatory effect that is observed with the use of an acetylcholinesterase inhibitor for treatment of rheumatologic diseases."}, "[3]": {"test_system": "patients with Parkinson's disease", "details": "donepizil decreased from 10 mg to 5 mg daily"}}, "note": "Entries after “also recorded” stand apart in the source; their conditions may differ."}
{"molecule": "COc1cc2c(cc1OC)C(=O)C(CC1CCN(Cc3ccccc3)CC1)C2", "note": "(centres unmarked) [donepizil, 1-benzyl-4->(5,6-dimethoxy-1-indanon)-2-yl methylpiperidine]", "values": [{"measurement": "post void residuals (PVR's)", "setting": "[1]; donepizil 5 mg orally daily with Detrol LA 2 mg orally daily", "result": "less than 100 cc"}, {"measurement": "voiding trial", "setting": "[1]; donepizil 5 mg orally daily, 24-48 hours or more before the trial", "result": "able to void without incident; also recorded: successful"}, {"measurement": "clinical outcome (movement, pain, sleep, edema)", "setting": "[2]; donepizil 5 mg orally daily", "result": "return of movement in their feet bilaterally; also recorded: improved sleep pattern and decreased pain; also recorded: edema previously noted in their feet bilaterally resolved; also recorded: became ambulatory; also recorded: improvement in their pain complaints and decreased swelling in their ankles bilaterally"}, {"measurement": "erythrocyte sedimentation rate (ESR), follow up", "setting": "[2]; donepizil 5 mg orally daily, Polymyalgia Rheumatica", "result": "in the normal range"}, {"measurement": "clinical outcome (strength, swelling, vision)", "setting": "[2]; donepizil 10 mg daily, Systemic Lupus Erythematosis", "result": "improved strength in their arms; also recorded: resolved as well as dysesthesias; also recorded: improved but not sufficient to allow for ambulation; also recorded: no return of vision; also recorded: return of movement in their feet bilaterally with decreased lower extremity swelling"}, {"measurement": "post void residuals", "setting": "[2]; donepizil 10 mg, SLE patient with urinary retention", "result": "less than 100 cc"}, {"measurement": "side effects", "setting": "[2]; donepizil 5-10 mg daily", "result": "no symptoms of diarrhea or nausea; also recorded: without incident, adverse side effects or deterioration in their condition; also recorded: no symptoms of diarrhea; also recorded: no untoward side effects"}, {"measurement": "course after dose reduction", "setting": "[3]", "result": "notable deterioration in their motor function and a return of Parkinsonian symptoms"}]}
